Laboratory results as given in the NIST ThermoML archive (doi:10.1016/j.tca.2015.06.017).

Assay: xn = mol fraction of the nth substance listed
Conditions: Liquid, Vibrating tube method

CC(C)(C)Cl [2-chloro-2-methylpropane] + CCCCCCC
mass density [kg/m3]
Conditions	313.15 K	323.15 K
100 kPa, x2 = 0.0554	–	794.33
100 kPa, x2 = 0.1017	–	785.21
100 kPa, x2 = 0.2004	–	766.79
100 kPa, x2 = 0.3016	–	749.26
100 kPa, x2 = 0.4097	–	731.93
100 kPa, x2 = 0.498	–	718.79
100 kPa, x2 = 0.5983	–	704.9
100 kPa, x2 = 0.7017	–	691.67
100 kPa, x2 = 0.7995	–	680.04
100 kPa, x2 = 0.9032	–	668.52
100 kPa, x2 = 0.9482	–	663.72
2000 kPa, x2 = 0.0554	–	797.48
2000 kPa, x2 = 0.1017	–	788.27
2000 kPa, x2 = 0.2004	–	769.77
2000 kPa, x2 = 0.3016	–	752.1
2000 kPa, x2 = 0.4097	–	734.59
2000 kPa, x2 = 0.498	–	721.4
2000 kPa, x2 = 0.5983	–	707.53
2000 kPa, x2 = 0.7017	–	694.11
2000 kPa, x2 = 0.7995	–	682.44
2000 kPa, x2 = 0.9032	–	670.78
2000 kPa, x2 = 0.9482	–	665.93
5000 kPa, x2 = 0.0554	–	802.32
5000 kPa, x2 = 0.1017	–	793.03
5000 kPa, x2 = 0.2004	–	774.28
5000 kPa, x2 = 0.3016	–	756.52
5000 kPa, x2 = 0.4097	–	738.91
5000 kPa, x2 = 0.498	–	725.49
5000 kPa, x2 = 0.5983	–	711.44
5000 kPa, x2 = 0.7017	–	697.95
5000 kPa, x2 = 0.7995	–	686.17
5000 kPa, x2 = 0.9032	–	674.4
5000 kPa, x2 = 0.9482	–	669.52
7000 kPa, x2 = 0.0554	–	805.4
7000 kPa, x2 = 0.1017	–	796.06
7000 kPa, x2 = 0.2004	–	777.25
7000 kPa, x2 = 0.3016	–	759.21
7000 kPa, x2 = 0.4097	–	741.54
7000 kPa, x2 = 0.498	–	728.22
7000 kPa, x2 = 0.5983	–	714.07
7000 kPa, x2 = 0.7017	–	700.51
7000 kPa, x2 = 0.7995	–	688.53
7000 kPa, x2 = 0.9032	–	676.71
7000 kPa, x2 = 0.9482	–	671.83
10000 kPa, x2 = 0.0554	–	809.88
10000 kPa, x2 = 0.1017	–	800.36
10000 kPa, x2 = 0.2004	–	781.49
10000 kPa, x2 = 0.3016	–	763.36
10000 kPa, x2 = 0.4097	–	745.37
10000 kPa, x2 = 0.498	–	731.85
10000 kPa, x2 = 0.5983	–	717.55
10000 kPa, x2 = 0.7017	–	703.96
10000 kPa, x2 = 0.7995	–	691.76
10000 kPa, x2 = 0.9032	–	679.93
10000 kPa, x2 = 0.9482	–	674.96
20000 kPa, x2 = 0.0554	–	823.12
20000 kPa, x2 = 0.1017	–	813.35
20000 kPa, x2 = 0.2004	–	794.06
20000 kPa, x2 = 0.3016	–	775.49
20000 kPa, x2 = 0.4097	–	757.06
20000 kPa, x2 = 0.498	751.92	743.41
20000 kPa, x2 = 0.5983	737.01	728.54
20000 kPa, x2 = 0.7017	722.7	714.57
20000 kPa, x2 = 0.7995	709.98	702.11
20000 kPa, x2 = 0.9032	697.53	689.93
20000 kPa, x2 = 0.9482	692.28	684.86
30000 kPa, x2 = 0.0554	844.1	834.6
30000 kPa, x2 = 0.1017	834.2	824.82
30000 kPa, x2 = 0.2004	814.01	805.07
30000 kPa, x2 = 0.3016	794.87	786.11
30000 kPa, x2 = 0.4097	775.79	767.3
30000 kPa, x2 = 0.498	761.41	753.1
30000 kPa, x2 = 0.5983	746.13	738.15
30000 kPa, x2 = 0.7017	731.52	723.78
30000 kPa, x2 = 0.7995	718.59	711.07
30000 kPa, x2 = 0.9032	705.89	698.64
30000 kPa, x2 = 0.9482	700.51	693.47
40000 kPa, x2 = 0.0554	854.03	844.99
40000 kPa, x2 = 0.1017	843.96	835.05
40000 kPa, x2 = 0.2004	823.46	814.92
40000 kPa, x2 = 0.3016	804.15	795.67
40000 kPa, x2 = 0.4097	784.83	776.64
40000 kPa, x2 = 0.498	770.02	762.18
40000 kPa, x2 = 0.5983	754.48	746.92
40000 kPa, x2 = 0.7017	739.67	732.28
40000 kPa, x2 = 0.7995	726.54	719.25
40000 kPa, x2 = 0.9032	713.51	706.58
40000 kPa, x2 = 0.9482	708.05	701.31
50000 kPa, x2 = 0.0554	862.97	854.39
50000 kPa, x2 = 0.1017	852.84	844.39
50000 kPa, x2 = 0.2004	832.15	823.81
50000 kPa, x2 = 0.3016	812.43	804.37
50000 kPa, x2 = 0.4097	792.76	785.03
50000 kPa, x2 = 0.498	777.91	770.31
50000 kPa, x2 = 0.5983	762.19	754.82
50000 kPa, x2 = 0.7017	747.09	739.94
50000 kPa, x2 = 0.7995	733.8	726.85
50000 kPa, x2 = 0.9032	720.62	713.88
50000 kPa, x2 = 0.9482	715.12	708.52
60000 kPa, x2 = 0.0554	871.31	863.07
60000 kPa, x2 = 0.1017	861.07	852.83
60000 kPa, x2 = 0.2004	840.18	832.16
60000 kPa, x2 = 0.3016	820.2	812.47
60000 kPa, x2 = 0.4097	800.35	792.82
60000 kPa, x2 = 0.498	785.26	778.02
60000 kPa, x2 = 0.5983	769.28	762.27
60000 kPa, x2 = 0.7017	753.92	747.09
60000 kPa, x2 = 0.7995	740.45	733.8
60000 kPa, x2 = 0.9032	727.14	720.67
60000 kPa, x2 = 0.9482	721.6	715.25
65000 kPa, x2 = 0.0554	875.25	867.24
65000 kPa, x2 = 0.1017	864.95	856.84
65000 kPa, x2 = 0.2004	843.84	836.1
65000 kPa, x2 = 0.3016	823.81	816.3
65000 kPa, x2 = 0.4097	803.85	796.58
65000 kPa, x2 = 0.498	788.68	781.6
65000 kPa, x2 = 0.5983	772.62	765.81
65000 kPa, x2 = 0.7017	757.22	750.52
65000 kPa, x2 = 0.7995	743.57	737.12
65000 kPa, x2 = 0.9032	730.17	723.9
65000 kPa, x2 = 0.9482	724.57	718.48
